Data taken from US8563742B2, “Substituted aminothiazole derivatives, pharmaceutical compositions, and methods of use” (High Point Pharmaceuticals, LLC, priority 2008, dated 2013).

These molecules were tested against T1, human MC-4R (Homo sapiens, UniProt P32245) (assay: Biological Assay: inhibition of AgRP functional interaction with MC-4R in presence of αMSH (cAMP production)). Settings: HEK293 cells expressing human MC-4R, AgRP83-132 and αMSH present; read-out: Average EC50 (nM) in Biological Assay.
T1 construct: expressed in transfected cells
T1 sequence (P32245 whole entry): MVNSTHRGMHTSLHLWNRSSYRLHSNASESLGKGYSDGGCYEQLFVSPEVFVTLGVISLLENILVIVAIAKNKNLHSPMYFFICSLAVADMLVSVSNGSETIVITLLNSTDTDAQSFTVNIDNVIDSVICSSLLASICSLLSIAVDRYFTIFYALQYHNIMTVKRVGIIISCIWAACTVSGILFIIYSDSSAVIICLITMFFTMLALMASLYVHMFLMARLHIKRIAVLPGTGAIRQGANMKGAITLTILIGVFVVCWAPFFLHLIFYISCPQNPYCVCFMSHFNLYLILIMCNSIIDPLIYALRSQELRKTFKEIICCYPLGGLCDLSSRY
Type: cell-based
Procedure: The following method is illustrative of techniques that may be employed to measure the ability of the compounds of Formula (I) to functionally modulate the binding of AgRP to melanocortin receptors. In particular, the assay below measures the ability of compounds of Formula (I) or pharmaceutically acceptable salts thereof to functionally modulate the binding of AgRP to MC-4R in the presence of a MC-4R agonist, such as alpha-MSH.
HEK293 cells stably expressing human MC-4R receptors were grown in high glucose Dulbecco's Modified Eagle Medium (DMEM) with 4500 mg glucose/L, L-glutamine, NaHCO3, pyrdoxin HCl, 10 mM HEPES (pH 7.4), 0.1 mM NEAA (non-essential amino acid medium) (GIBCO Cat#11140-050), 10% fetal bovine serum and 700 μg/mL G418. Cells were grown in T-225 flasks at 37° C. with CO2 and humidity control.
On the day of assay, cells were washed twice with phosphate buffered saline without calcium and magnesium (PBS) and incubated with 10 mL PBS until the cells were detached from the flask. The detached cells were centrifuged at 240 g for 5 min. The cell pellet was re-suspended in assay buffer (Earle's balanced salt solution (Sigma E3024) supplemented with 10 mM HEPES, pH 7.4, 0.5 mM IBMX and protease inhibitor cocktail (Roche, 1 complete tablet/75 mL buffer)).
The inhibitory or enhancement effect of compounds on AgRP activity was measured in a multi-component assay containing testing compounds, AgRP83-132 (human, Phoenix Pharma, cat no. 003-53), cells expressing MC-4R, and αMSH (Bachem, cat no. H-1075). Test compounds, AgRP and αMSH were diluted with assay buffer. Test compounds and AgRP were mixed to 4 times of the final concentration and incubated at room temperature for 30 min. Five μL of testing compound/AgRP solution followed with 10 μL of cells (20,000 cells/well) were added to each well of a 384-well reaction plate before 5 μL of αMSH was added. Cells were stimulated with αMSH for an additional 30 min at 37° C.
Stimulation of cells was stopped by adding a lysis buffer and cells were lysed. The intracellular concentration of cAMP may be measured by various techniques known to one of skill in the art including, but not limited to, fluorescence polarization (FP) and time-resolved fluorescence (TRF).
The inhibition was shown by an increase in MC-4R mediated cAMP production.
`Cc1ccc(CN(CCC(=O)O)c2nc(C3CCc4ccccc4C3)cs2)s1` (stereo not shown) [Example 14, 3-{(5-Methyl-thiophen-2-ylmethyl)-[4-(1,2,3,4-tetrahydro-naphthalen-2-yl)-thiazol-2-yl]-amino]-propionic acid] gave an EC50 of 602 nM. Molecule `Cc1ccc(CN(CCC(=O)O)c2nc(C3Cc4ccccc4C3)cs2)s1` [Example 12, 3-[(4-Indan-2-yl-thiazol-2-yl)-(5-methyl-thiophen-2-ylmethyl)-amino]-propionic acid] has an EC50 of 384 nM. `CCc1ccc(CN(CCC(=O)O)c2nc(C3CCC(C(F)(F)F)CC3)cs2)s1` (stereo not shown) [Example 17, 3-{(5-Ethyl-thiophen-2-ylmethyl)-[4-(4-trifluoromethyl-cyclohexyl)-thiazol-2-yl]-amino}-propionic acid] showed an EC50 of 259 nM. For `Cc1ccc(CN(CCC(=O)O)c2nc(C3(c4ccc(F)cc4)CCCC3)cs2)s1` [Example 34, Sodium; 3-[{4-[1-(4-fluoro-phenyl)-cyclopentyl]-thiazol-2-yl}-(5-methyl-thiophen-2-ylmethyl)-amino]-propionate], the EC50 was 269 nM. For `Cc1ccc(CN(CCC(=O)O)c2nc(C3(C)CCC(c4ccccc4)CC3)cs2)s1` (stereo not shown) [Example 51, 3-[[4-(1-Methyl-4-phenyl-cyclohexyl)-thiazol-2-yl]-(5-methyl-thiophen-2-ylmethyl)-amino]-propionic acid], the EC50 was 143 nM. Work on `CCC1(c2csc(N(CCC(=O)O)Cc3ccc(C)s3)n2)CCC(C)CC1` (stereo not shown) [Example 45, Sodium; 3-[[4-(1-ethyl-4-methyl-cyclohexyl)-thiazol-2-yl]-(5-methyl-thiophen-2-ylmethyl)-amino]-propionate] yielded an EC50 of 159 nM. `CCc1ccc(CN(CCC(=O)O)c2nc(C3CCC(C(C)(C)C)CC3)cs2)s1` (stereo not shown) [Example 28, 3-[[4-(4-tert-Butyl-cyclohexyl)-thiazol-2-yl]-(5-ethyl-thiophen-2-ylmethyl)-amino]-propionic acid] gave an EC50 of 171 nM. Molecule `Cc1ccc(C2(c3csc(N(CCC(=O)O)Cc4ccc(C)s4)n3)CCCC2)cc1` [Example 35, Sodium; 3-{(5-methyl-thiophen-2-ylmethyl)-[4-(1-p-tolyl-cyclopentyl)-thiazol-2-yl]-amino}-propionate] has an EC50 of 132 nM. With `CCc1ccc(CN(CCC(=O)O)c2nc(C3CCC(OC)CC3)cs2)s1` (stereo not shown) [Example 32, 3-{(5-Ethyl-thiophen-2-ylmethyl)-[4-(4-methoxy-cyclohexyl)-thiazol-2-yl]-amino}-propionic acid] the EC50 was 2280 nM. With `CCc1ccc(CN(CCC(=O)O)c2nc(C3CC4CCC3C4)cs2)s1` (stereo not shown) [Example 1, Sodium; 3-[(4-bicyclo[2.2.1]hept-2-yl-thiazol-2-yl)-(5-ethyl-thiophen-2-ylmethyl)-amino]-propionate] the EC50 was 126 nM. `Cc1ccc(CN(CCC(=O)O)c2nc(C3(C)CCC(C(C)(C)C)CC3)cs2)s1` (stereo not shown) [Example 50, 3-[[4-(4-tert-Butyl-1-methyl-cyclohexyl)-thiazol-2-yl]-(5-methyl-thiophen-2-ylmethyl)-amino]-propionic acid] showed an EC50 of 154 nM. With `COC1CCC(c2csc(N(CCC(=O)O)Cc3ccc(C)s3)n2)CC1` (stereo not shown) [Example 30, 3-[[4-(4-Methoxy-cyclohexyl)-thiazol-2-yl]-(5-methyl-thiophen-2-ylmethyl)-amino]-propionic acid] the EC50 was 3890 nM. Work on `CCc1ccc(CN(CCC(=O)O)c2nc([C@H]3CC[C@H](C(C)C)CC3)cs2)s1` [Example 10, Sodium; 3-[(5-ethyl-thiophen-2-ylmethyl)-[4-(4-trans-isopropyl-cyclohexyl)-thiazol-2-yl]-amino]-propionate] yielded an EC50 of 260 nM. For `Cc1cc(CN(CCC(=O)O)c2nc(C3CC4CCCCC4C3)cs2)c(C)s1` (stereo not shown) [Example 59, 3-{(2,5-Dimethyl-thiophen-3-ylmethyl)-[4-(octahydro-inden-2-yl)-thiazol-2-yl]-amino}-propionic acid], the EC50 was 160 nM. For `CCc1ccc(CN(CCC(=O)O)c2nc(C3CCC(OC)CC3)cs2)s1` (stereo not shown) [Example 33, 3-{(5-Ethyl-thiophen-2-ylmethyl)-[4-(4-methoxy-cyclohexyl)-thiazol-2-yl]-amino}-propionic acid], the EC50 was 1230 nM. In the case of `CCc1ccc(CN(CCC(=O)O)c2nc(C3CCc4ccccc4C3)cs2)s1` (stereo not shown) [Example 13, 3-{(5-Ethyl-thiophen-2-ylmethyl)-[4-(1,2,3,4-tetrahydro-naphthalen-2-yl)-thiazol-2-yl]-amino}-propionic acid], the EC50 is reported as 528 nM. For `CC(C)(C)C1CCC(c2csc(N(CCC(=O)O)Cc3ccc(S(C)(=O)=O)s3)n2)CC1` (stereo not shown) [Example 36, 3-[[4-(4-tert-Butyl-cyclohexyl)-thiazol-2-yl]-(5-methanesulfonyl-thiophen-2-ylmethyl)-amino]-propionic acid], the EC50 was 267 nM. `Cc1ccc(CN(CCC(=O)O)c2nc(C3CCC(C)(C)CC3)c(C)s2)s1` [Example 56, Sodium; 3-[[4-(4,4-dimethyl-cyclohexyl)-5-methyl-thiazol-2-yl]-(5-methyl-thiophen-2-ylmethyl)-amino]-propionate] was tested, and the EC50 was 217 nM. Work on `Cc1ccc(CN(CCC(=O)O)c2nc(C3CCC(C(F)(F)F)CC3)cs2)s1` (stereo not shown) [Example 18, 3-{(5-Methyl-thiophen-2-ylmethyl)-[4-(4-trifluoromethyl-cyclohexyl)-thiazol-2-yl]-amino}-propionic acid] yielded an EC50 of 416 nM. `Cc1ccc(CN(CCC(=O)O)c2nc(C3CCC4(CCCC4)CC3)cs2)s1` [Example 62, 3-[(5-methyl-thiophen-2-ylmethyl)-(4-spiro[4.5]dec-8-yl-thiazol-2-yl)-amino]-propionic acid] gave an EC50 of 321 nM. Molecule `CCC1(c2csc(N(CCC(=O)O)Cc3ccc(C)s3)n2)CCC(C(C)C)CC1` (mixture of isomers) [Example 41, Sodium; 3-[[4-(1-ethyl-4-isopropyl-cyclohexyl)-thiazol-2-yl]-(5-methyl-thiophen-2-ylmethyl)-amino]-propionate] has an EC50 of 58 nM. `CSc1ccc(CN(CCC(=O)O)c2nc(C3CCC(C(C)(C)C)CC3)cs2)s1` (stereo not shown) [Example 29, Sodium; 3-[[4-(4-tert-butyl-cyclohexyl)-thiazol-2-yl]-(5-methylsulfanyl-thiophen-2-ylmethyl)-amino]-propionate] showed an EC50 of 427 nM. Work on `Cc1ccc(CN(CCC(=O)O)c2nc(C3CC4CCCCC4C3)cs2)s1` (stereo not shown) [Example 57, 3-{(5-Methyl-thiophen-2-ylmethyl)-[4-(octahydro-inden-2-yl)-thiazol-2-yl]-amino}-propionic acid] yielded an EC50 of 187 nM. In the case of `CCc1ccc(CN(CCC(=O)O)c2nc(C3(CC(C)C)CCCC3)cs2)s1` [Example 43, 3-{(5-Ethyl-thiophen-2-ylmethyl)-[4-(1-isobutyl-cyclopentyl)-thiazol-2-yl]-amino}-propionic acid], the EC50 is reported as 173 nM. Molecule `Cc1cc(CN(CCC(=O)O)c2nc(C3(CC(C)C)CCCC3)cs2)c(C)s1` [Example 44, 3-{(2,5-Dimethyl-thiophen-3-ylmethyl)-[4-(1-isobutyl-cyclopentyl)-thiazol-2-yl]-amino}-propionic acid] has an EC50 of 191 nM. In the case of `Cc1ccc(CN(CCC(=O)O)c2nc(CC3CCC(C)CC3)cs2)s1` (stereo not shown) [Example 16, 3-[[4-(4-Methyl-cyclohexylmethyl)-thiazol-2-yl]-(5-methyl-thiophen-2-ylmethyl)-amino]-propionic acid], the EC50 is reported as 205 nM. Molecule `CCc1ccc(CN(CCC(=O)O)c2nc(C3Cc4ccccc4C3)cs2)s1` [Example 11, 3-[(5-Ethyl-thiophen-2-ylmethyl)-(4-indan-2-yl-thiazol-2-yl)-amino]-propionic acid] has an EC50 of 252 nM. `Cc1ccc(CN(CCC(=O)O)c2nc(C3CCC4(CCCCC4)CC3)cs2)s1` [Example 63, 3-[(5-methyl-thiophen-2-ylmethyl)-(4-spiro[5.5]undec-3-yl-thiazol-2-yl)-amino]-propionic acid] showed an EC50 of 283 nM. Molecule `Cc1ccc(CN(CCC(=O)O)c2nc(C3CCC(C(C)(C)C)CC3)cs2)s1` (stereo not shown) [Example 27, 3-[[4-(4-tert-Butyl-cyclohexyl)-thiazol-2-yl]-(5-methyl-thiophen-2-ylmethyl)-amino]-propionic acid] has an EC50 of 114 nM. Work on `Cc1ccc(CN(CCC(=O)O)c2nc(CC3CCC(C)(C)CC3)cs2)s1` [Example 64, 3-[[4-(4,4-dimethyl-cyclohexylmethyl)-thiazol-2-yl]-(5-methyl-thiophen-2-ylmethyl)-amino]-propionic acid] yielded an EC50 of 90 nM. With `Cc1ccc(CN(CCC(=O)O)c2nc(C3(C)CCC(C)(C)CC3)cs2)s1` [Example 52, 3-[[4-(1,4,4-trimethyl-cyclohexyl)-thiazol-2-yl]-(5-methyl-thiophen-2-ylmethyl)-amino]-propionic acid] the EC50 was 267 nM.
